Data from ChEMBL document CHEMBL4177594, “Design, synthesis, and evaluation of salicyladimine derivatives as multitarget-directed ligands against Alzheimer's disease” (Bioorg Med Chem, 2017).

What was measured:
PC-12 [1] = assay: Antioxidant activity against H2O2-induced oxidative stress in rat PC12 cells assessed as reduction in intracellular ROS levels after 48 hrs by DCFH-DA staining based flow cytometry; type: functional, cell-based
[2] = molecular target: T1, Amine oxidase [flavin-containing] A (Homo sapiens, UniProt P21397); assay: Inhibition of human MAO-A at 200 uM using p-tyramine as substrate preincubated for 15 mins followed by substrate addition measured after 20 mins by fluorescence-based Amplex Red MAO assay
T1 sequence (P21397 whole entry): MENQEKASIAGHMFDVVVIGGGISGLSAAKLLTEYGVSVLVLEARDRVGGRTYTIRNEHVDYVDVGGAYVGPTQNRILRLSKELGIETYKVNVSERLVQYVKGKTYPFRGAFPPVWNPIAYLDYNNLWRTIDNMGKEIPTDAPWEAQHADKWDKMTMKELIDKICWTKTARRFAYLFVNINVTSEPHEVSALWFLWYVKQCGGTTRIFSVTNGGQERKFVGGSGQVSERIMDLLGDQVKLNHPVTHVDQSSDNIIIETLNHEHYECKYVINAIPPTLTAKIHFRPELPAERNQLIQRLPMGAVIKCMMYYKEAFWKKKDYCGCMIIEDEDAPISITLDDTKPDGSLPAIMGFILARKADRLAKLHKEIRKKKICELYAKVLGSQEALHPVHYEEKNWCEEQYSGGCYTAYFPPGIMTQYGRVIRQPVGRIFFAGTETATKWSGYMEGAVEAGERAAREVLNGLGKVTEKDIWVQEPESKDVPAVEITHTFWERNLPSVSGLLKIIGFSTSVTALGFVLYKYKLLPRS

PC-12 [3] = assay: Neuroprotective activity against H2O2-induced apoptosis in rat PC12 cells assessed as viable cells level at 12.5 uM after 24 hrs by Annexin V/FITC/propidium iodide staining-based flow cytometry (reference value: 96.2%); type: functional
PC-12 [4] = assay: Neuroprotective activity against H2O2-induced apoptosis in rat PC12 cells assessed as early apoptosis cells level at 25 uM after 24 hrs by Annexin V/FITC/propidium iodide staining-based flow cytometry (reference value: 1.8%); type: functional
[5] = molecular target: Amyloid-beta precursor protein (Homo sapiens) (UniProt P05067); assay: Inhibition of self-induced aggregation of amyloid beta (1 to 42 residues) (unknown origin) at 25 uM incubated for 48 hrs by Thioflavin T fluorescence assay relative to control
PC-12 [6] = assay: Neuroprotective activity against H2O2-induced apoptosis in rat PC12 cells assessed as late apoptosis cells level at 12.5 uM after 24 hrs by Annexin V/FITC/propidium iodide staining-based flow cytometry (reference value: 1.9%); type: functional

Sequence of Amyloid-beta precursor protein (Homo sapiens) (P05067 whole entry, the tested form may be a part): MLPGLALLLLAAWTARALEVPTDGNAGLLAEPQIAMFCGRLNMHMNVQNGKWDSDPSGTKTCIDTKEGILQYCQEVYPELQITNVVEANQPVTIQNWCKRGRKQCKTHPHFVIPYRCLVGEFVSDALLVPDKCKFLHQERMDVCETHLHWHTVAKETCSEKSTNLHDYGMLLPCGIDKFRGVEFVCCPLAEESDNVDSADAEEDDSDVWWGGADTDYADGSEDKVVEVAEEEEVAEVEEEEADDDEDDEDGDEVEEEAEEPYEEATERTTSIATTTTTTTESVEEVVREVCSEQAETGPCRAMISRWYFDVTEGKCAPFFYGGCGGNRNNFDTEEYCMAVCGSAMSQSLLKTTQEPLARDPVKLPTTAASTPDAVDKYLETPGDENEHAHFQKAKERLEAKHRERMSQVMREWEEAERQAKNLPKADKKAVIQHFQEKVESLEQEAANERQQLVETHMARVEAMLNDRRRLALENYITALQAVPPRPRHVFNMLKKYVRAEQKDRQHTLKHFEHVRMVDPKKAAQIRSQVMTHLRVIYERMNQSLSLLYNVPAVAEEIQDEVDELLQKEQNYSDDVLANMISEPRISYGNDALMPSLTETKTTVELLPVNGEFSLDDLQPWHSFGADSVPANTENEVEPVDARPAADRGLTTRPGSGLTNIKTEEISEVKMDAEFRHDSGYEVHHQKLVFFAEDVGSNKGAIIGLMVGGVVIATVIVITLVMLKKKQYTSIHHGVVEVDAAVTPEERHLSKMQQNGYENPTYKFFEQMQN

Oc1ccc(/C=N/c2ccc(OCc3ccccc3)cc2)c(O)c1O
Activity (PC-12 [1]): Dose-dependent effect
inhibition (INH) [2]: Not Active
Activity (PC-12 [3]): 69.8%
Activity (PC-12 [4]): 8.5%
inhibition [5]: 91.3%
Activity (PC-12 [6]): 4.2%
